Data taken from patent publication US12258574B2, “Methods and compositions for transducing lymphocytes and regulating the activity thereof” (Exuma Biotech Corp., priority 2016, dated 2025).
Counter-ions that a name gives are not always drawn.

Legend:
deoxyguanosine switch = experiment: Tests of natural deoxyguanosine riboswitch with nucleoside analogues; format: binding
Text: This example provides a method to screen libraries based on natural structural riboswitches that bind guanosine and deoxyguanosine. These riboswitches were used as scaffolds to develop biased libraries for the selection of aptamers that bind specifically to a ligand nucleoside analogue. Previously, isothermal titration calorimetry has been used to show these natural riboswitches bind to their native ligands. […] The single-stranded regions of the riboswitch were targeted for mutation and variant sequences that specifically respond to acyclovir or penciclovir were selected for.

[1] = Deep sequencing and sequence family analysis of parallel assessment populations, acyclovir candidates; format: binding; conditions: for Enrichment rate: ratio between final positive and penultimate positive population; for presence in the negative population: sequenced final generation library responding to 1X selection buffer; for presence in the counter-targets population: sequenced final generation library responding to counter-targets
Text: The Illumina MiSeq system (San Diego, CA) was implemented to sequence the aptamer libraries after parallel assessment using a single-end read technique. Deep sequencing and subsequent data analysis reduces the large number of screening rounds traditional SELEX requires, which may introduce error and bias due to the screening process (Schütze et al., 2011). Five samples were sequenced: the final generation library that responded to acyclovir, the final generation library that responded to the counter-targets, the final generation library that responded to 1× selection buffer (negative condition), the penultimate generation library that responded to acyclovir, and the final generation library that responded to the additional target of interest, penciclovir. From these sets of data, sequence families were constructed at 95% homology (sequence similarity considering mutations, deletions, and insertion) for aptamer candidate identification. There were 1,711,535 raw sequences (124,600 unique sequences) from the library that responded to acyclovir and 2,074,832 raw sequences (110,149 unique sequences) from the library that responded to penciclovir.
Sequence family construction focused primarily on sequence similarity. This means that a sequence's frequency in the positive target population was factored in, but greater emphasis was placed on the degree of variation between similar sequences, with 95% homology being the minimum requirement (100% match over the entire sequence is not necessary to join a family, up to 2 bases can be mismatched, inserted, or deleted). One would therefore expect families with the greatest number of members to rank highly as aptamer candidates. […] Under these conditions, several candidate families appeared to be strong candidates for binding acyclovir (Table 2) and penciclovir.

CHO-Target 1 cells = experiment: pH shift cytotoxicity assay / HCl switch RTCA killing assay (xCELLigence); format: cell-based
Experimental: The cytotoxic activity of transduced T cells before and after pH change by addition of NaHCO3 or NaOH was measured using the xCELLigence System. Briefly, one day before the experiment, target cells (CHO cells stably transfected with a construct to express Target 1 on the cell surface (CHO-Target 1 cells)), were seeded into a 96-well E-plate (ACEA; San Diego, CA) at 10,000 cells/well with X-VIVO 15 media containing 40 mM HEPES and 40 mM PIPES, pH 6.7. Cryopreserved effector cells previously transduced with either lentiviral particles containing the nucleic acid encoding T1B or C1 (T1BVP and C1VP, respectively) produced as discussed above, were thawed and cultured for two days in X-VIVO 15 media containing 100 IU/mL of IL-2 (R&D Systems, Minneapolis, MN). On the day of the experiment, cells transduced with T1BVP or C1VP were washed and resuspended in X-VIVO 15 media containing 40 mM HEPES and 40 mM PIPES, pH 6.7 and then added into the experimental wells at effector cell/target cell ratios (E/T) of 1:1.
Impedance readings measured on the xCELLigence System (ACEA) were taken every 5 minutes and reported as the Cell Index (CI) to quantitate cell confluency as a measure of cell proliferation/cell lysis. Approximately 3 hours after effector cell addition, 8 μl of 7.5% NaHCO3 or 14 μl of 0.5 M NaOH was added into the wells with X-VIVO 15 media containing 40 mM HEPES and 40 mM PIPES, pH 6.7 to increase the pH from 6.7 to 7.4. Impedance readings were continued for approximately 20 hours after effector cell addition. Percentage of specific cytolysis was calculated as follows ((CI Target+C1VP transduced effector T cells)−(CI Target+T1BVP transduced effector T cells))/(CI Target+C1VP transduced effector T cells)×100.
The cytotoxic activity of transduced T cells before and after pH change by addition of HCl was measured using the xCELLigence System. Briefly, one day before the experiment, CHO-Target 1 cells were seeded into a 96 well E-plate at 10,000 cells/well with X-VIVO 15 media containing 40 mM HEPES and 40 mM PIPES, pH 7.4. Cryopreserved effector cells previously transduced with either C1VP or T1BVP, were thawed and cultured for two days in X-VIVO 15 media containing 100 IU/mL of IL-2. On the day of the experiment, cells transduced with T1BVP or C1VP were washed and resuspended in X-VIVO 15 media containing 40 mM HEPES and 40 mM PIPES, pH 7.4 and then added into experimental wells at effector cell/target cell ratios (E/T) of 1:1.
Impedance readings were taken every 5 minutes and reported as the Cell Index (CI). […] Impedance readings were continued for approximately 20 hours after effector cell addition. Percentage of specific cytolysis was calculated as follows ((CI Target+C1VP transduced effector T cells)−(CI Target+T1BVP transduced effector T cells))/(CI Target C1VP)×100.

[2] = Qualitative PAGE assessment of selected aptamers after graphene oxide selection; format: binding; conditions: 0.5 mM MgCl2, 37° C., 0.5 μM aptamer, 1 μM target or counter-targets
Experimental: Qualitative PAGE assessment of selected aptamers was performed. Individually synthesized and transcribed aptamers were subjected to selection on Graphene Oxide (GrO) under physiological Mg++ (0.5 mM) and elution with either acyclovir (+) or counter-targets (×). The specifically eluted aptamer fractions for each sample were subjected to PAGE for analysis.
Final library concentration was 0.5 μM, target/counter-targets concentration was 1 μM (incubation volume was 200 μl).
After target/counter-target incubation, 250 μg of GrO (Angstrom Materials (Dayton, OH) was added to adsorb unbound candidate (10-minute incubation at 37° C.).
Samples were centrifuged for 5 minutes at 7,000×g. […] Running buffer was 1×TBE (supplier: Amresco/VWR; catalog #0658-20L, diluted using DI water). DNA ladder was 20/100 DNA ladder (IDT). Gels stained with Gel Star (Lonza, 50535) and imaged on a blue light transilluminator.

[3] = Thermal denaturation by differential scanning calorimetry (DSC)
Experimental: At least 10 nmole of each candidate was lyophilized, and resuspended in 1× Binding Buffer (50 mM HEPES, 100 mM KCl, 0.5 mM MgCl2, pH 7.3) on the day of binding assessment.
All analyses were conducted in 1× Binding Buffer and all water used was DEPC-treated. All analytes were resuspended first in DEPC-treated water then diluted to their final listed concentration in 1× Binding Buffer. Prior to loading of the DSC (GE Healthcare MicroCal VP-DSC), the samples were degassed at 25° C. for 10 minutes.

Molecule: Nc1nc2c(ncn2COCCO)c(=O)[nH]1 [acyclovir]
- interaction with deoxyguanosine switch (deoxyguanosine switch): interacted weakly

Molecule: F1A-935: acyclovir aptamer candidate, most prevalent sequence of family 935; SEQ ID NO:183 (ACAGGGTAGCATAATGGGCTACTTGACGCCTTCACCTATTTGTAGACT; RNA riboswitch aptamer, listed DNA covers non-stem region only, further chemistry not given here) [Candidate F1A-935]
- Enrichment rate [1]: performing adequately
- presence in the negative population [1]: not found
- presence in the counter-targets population [1]: not detected

Molecule: [Na+].[OH-] [NaOH]
- effect on cytotoxic activity of MRB-CAR T cells of raising media pH from 6.7 to 7.4 (CHO-Target 1 cells; added about 3 hours after effector cells, E/T 1:1): inhibited the cytotoxic activity

Molecule: F1A-961: acyclovir aptamer candidate; SEQ ID NO:220 (ACACCGTAGCATAATGGGCTACTGCCGCCGTCGACCTTTTGGAGACT; RNA riboswitch aptamer, listed DNA covers non-stem region only, further chemistry not given here) [Candidate F1A-961]
- presence in the negative population [1]: performing less well
- presence in the counter-targets population [1]: show up to a small degree

Molecule: Nc1nc2c(ncn2CCC(CO)CO)c(=O)[nH]1 [penciclovir]
- interaction with deoxyguanosine switch (deoxyguanosine switch): interacted weakly

Molecule: F1A-769: acyclovir aptamer candidate, most prevalent sequence of family 769; SEQ ID NO:147 (ACAGGTCAGCATAATGTGCTAGTGCGCCTTCAAACCTATTTAGAGACT; RNA riboswitch aptamer, listed DNA covers non-stem region only, further chemistry not given here) [Candidate F1A-769]
- Enrichment rate [1]: performing adequately
- presence in the negative population [1]: minimally detected
- response in qualitative PAGE assessment (elution from GrO with acyclovir vs counter-targets) [2]: selective positive response

Molecule: F1A-946: acyclovir aptamer candidate, most prevalent sequence of family 946; SEQ ID NO:198 (ACAGCGTAGCATAATGGGCTGCAGACGCCGTCAAACCTATTTGCAGACT; RNA riboswitch aptamer, listed DNA covers non-stem region only, further chemistry not given here) [Candidate F1A-946]
- Enrichment rate [1]: performing adequately
- presence in the negative population [1]: not found
- presence in the counter-targets population [1]: not detected
- response in qualitative PAGE assessment (elution from GrO with acyclovir vs counter-targets) [2]: selective positive response

Molecule: F1A-795: acyclovir aptamer candidate, most prevalent sequence of family 795; SEQ ID NO:164 (ACAGCGAAGCATAATGGCTACTGACGCCCTCAAACCCTATTTGCAGACT; RNA riboswitch aptamer, listed DNA covers non-stem region only, further chemistry not given here) [Candidate F1A-795]
- presence in the negative population [1]: performing less well
- presence in the counter-targets population [1]: not detected
- response in qualitative PAGE assessment (elution from GrO with acyclovir vs counter-targets) [2]: selective positive response
- thermal denaturation transition ([3]; absence of acyclovir, 7.2 μM F1A-795, 1X Binding Buffer): about 60 °C
- binding of acyclovir to the aptamer domain ([3]; concluded from stabilizing effect in DSC): bound by acyclovir

Molecule: F1A-582: acyclovir aptamer candidate, most prevalent sequence of family 582; SEQ ID NO:108 (ACAGCTTAGCGTAATGGCTACTGACGCCGTCCAAACCTATTTACAGACT; RNA riboswitch aptamer, listed DNA covers non-stem region only, further chemistry not given here) [Candidate F1A-582]
- Enrichment rate [1]: greatest enrichment rate
- presence in the negative population [1]: did not perform well
- presence in the counter-targets population [1]: did not perform well

Molecule: Cl [HCl]
- effect on cytotoxic activity of MRB-CAR T cells of switching media pH from 7.4 to 6.7 (CHO-Target 1 cells; 8 μl of 1 M HCl about 3 hours after effector cells, E/T 1:1): increased

Molecule: F1A-996: acyclovir aptamer candidate; SEQ ID NO:221 (ACAGGGTAGCATAATGGCTTAGGACGCCTTCAAACCTATCAAGACT; RNA riboswitch aptamer, listed DNA covers non-stem region only, further chemistry not given here) [Candidate F1A-996]
- presence in the negative population [1]: performing less well
- presence in the counter-targets population [1]: show up to a small degree
- response in qualitative PAGE assessment (elution from GrO with acyclovir vs counter-targets) [2]: selective positive response

B1: T1B: an anti-Target 1 MRB-CAR from the series of candidate MRB-CARs in Example 3 (protein)
chain: EVQLVQSGAEVKKPGATVKISCKVSGYSFWGATMNWIRQPPGKGLEWIGLIKPSNGGTSYNQKFKGRVTISADKSISTAYLQWSSLKASDTAMYYCAHGHYESYEAMDYWGQGTLVTVSSGGGGSGGGGSGGGGSDIQMTQSPSSLSASVGDRVTITCKASQDVVSAVAWYQQKPGQAPRLLIYWQDTRHTGVPSRFSGSGSGTEFTLTISSLQPDDFATYYCQEHFSPPLTFGQGTKVEIKFWVLVVVGGVLACYSLLVTVAFIIFWVRSKRSRLLHSDYMNMTPRRPGPTRKHYQAYAAARDFAAYRSRVKFSRSADAPAYQQGQNQLYNELNLGRREEYDVLDKRRGRDPEMGGKPRRKNPQEGLYNELQKDKMAEAYSEIGMKGERRRGKGHDGLYQGLSTATKDTYDALHMQALPPR
- cytotoxic activity on CHO-Target 1 cells (CHO-Target 1 cells; pH 7.4, E/T 1:1): low
